# Test results taken from article PMC3152332 (Nucleic Acids Research, 2011).
# Columns and labels:
# yeast Mtq2-Trm112 = yeast Mtq2-Trm112 (Saccharomyces cerevisiae, UniProt Q03920); details: labelled compound; eRF1, eRF3 and GTP present
# Ec-Mtq2-Trm112 = Ec-Mtq2-Trm112 (Encephalitozoon cuniculi, UniProt Q8SRR4); details: SAM co-purified with the complex; contacts only Mtq2 residues
# Hs-Mtq2 + Hs-Trm112 = Hs-Mtq2 + Hs-Trm112 (Homo sapiens, UniProt Q9Y5N5); details: labelled compound; with Hs-Trm112; methylation buffer, 30 °C, 15 min
# Chain of Hs-Mtq2 + Hs-Trm112 (Q9Y5N5 whole entry): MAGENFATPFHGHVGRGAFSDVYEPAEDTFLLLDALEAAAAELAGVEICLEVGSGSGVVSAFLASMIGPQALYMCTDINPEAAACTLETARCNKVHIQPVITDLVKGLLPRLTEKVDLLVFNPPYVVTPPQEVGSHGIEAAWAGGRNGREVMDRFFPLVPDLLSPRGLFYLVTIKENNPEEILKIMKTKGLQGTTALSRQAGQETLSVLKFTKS
# Chain of Hs-Mtq2 + Hs-Trm112 (Q9UI30 whole entry partner): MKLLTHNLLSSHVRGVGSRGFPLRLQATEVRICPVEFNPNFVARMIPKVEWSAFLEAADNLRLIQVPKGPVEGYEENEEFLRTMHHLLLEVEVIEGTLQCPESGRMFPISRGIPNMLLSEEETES
# Chain of yeast Mtq2-Trm112 (Q03920 whole entry): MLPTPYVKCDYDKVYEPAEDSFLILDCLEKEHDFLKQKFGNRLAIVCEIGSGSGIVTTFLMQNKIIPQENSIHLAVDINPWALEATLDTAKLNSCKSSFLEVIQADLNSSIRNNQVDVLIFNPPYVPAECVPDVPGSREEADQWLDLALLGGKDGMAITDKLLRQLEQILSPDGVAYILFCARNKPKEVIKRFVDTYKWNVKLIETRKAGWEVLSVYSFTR
# Chain of yeast Mtq2-Trm112 (P53738 whole entry partner): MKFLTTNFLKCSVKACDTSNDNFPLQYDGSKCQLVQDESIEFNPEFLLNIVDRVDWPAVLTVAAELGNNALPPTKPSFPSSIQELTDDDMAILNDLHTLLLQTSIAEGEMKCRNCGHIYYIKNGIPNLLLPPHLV
# Chain of Ec-Mtq2-Trm112 (Q8SRR4 1-164): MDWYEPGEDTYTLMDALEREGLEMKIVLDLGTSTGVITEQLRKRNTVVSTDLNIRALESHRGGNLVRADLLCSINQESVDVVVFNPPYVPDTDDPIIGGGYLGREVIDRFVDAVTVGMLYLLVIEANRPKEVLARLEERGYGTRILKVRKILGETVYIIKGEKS
# Chain of Ec-Mtq2-Trm112 (Q8SUP0 1-125 partner): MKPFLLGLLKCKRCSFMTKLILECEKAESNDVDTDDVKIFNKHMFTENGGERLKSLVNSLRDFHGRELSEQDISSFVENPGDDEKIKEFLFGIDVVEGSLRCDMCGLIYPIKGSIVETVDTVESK
compound,measurement,setting,value
C[S+](CC[C@H](N)C(=O)O)C[C@H]1O[C@@H](n2cnc3c(N)ncnc32)[C@H](O)[C@@H]1O (stereo partly drawn) [SAM],"[3H]SAM methylation of eRF1, initial velocity",yeast Mtq2-Trm112,"incubating eRF1, eRF3 and GTP with Mtq2-Trm112 complex in presence of [3H] SAM"
same,"X-ray crystal structure, 2.1 Å",Ec-Mtq2-Trm112,an unambiguous electron density corresponding to a SAM molecule is present in its expected binding site
same,SAM-binding activity,Hs-Mtq2 + Hs-Trm112,Incubation of this protein with an equimolar amount of Hs-Trm112 resulted in restoration of SAM-binding activity
